# Results from patent US20240287076A1, “COMPOUNDS FOR TARGETING DEGRADATION OF BRUTON'S TYROSINE KINASE” (BIOGEN MA INC., priority 2021, published 2024).
# Molecular target: T1, BTK (Homo sapiens, UniProt Q06187)
# T1 construct: The GM01501.3 cell line endogenously expresses BTK with a HiBiT fusion tag via CRISPR knock-in at its C-terminal region; endogenous in cells; host or cells: GM01501.3 (GM01501 cells engineered by CRISPR knock-in of HiBiT at the BTK locus)
# Assay: BTK degradation assay using the HiBiT Method (Nano-Glo HiBiT Lytic Assay, GM01501.3 cells)
# Assay type: cell-based
# Details: HiBiT Degradation on GM01501.3 BTK @ 6 hours
# Method in brief: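 CRISPR knock-in GM01501.3 cells expressing endogenous BTK with C-terminal HiBiT tag, treated 6 h at 37 °C with compounds, 11-point half-log titration from 10 μM top, duplicates. Remaining BTK quantified by Nano-Glo HiBiT lytic luminescence versus DMSO controls; DC50 reported.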
# T1 sequence (Q06187 whole entry, the tested form may be a part): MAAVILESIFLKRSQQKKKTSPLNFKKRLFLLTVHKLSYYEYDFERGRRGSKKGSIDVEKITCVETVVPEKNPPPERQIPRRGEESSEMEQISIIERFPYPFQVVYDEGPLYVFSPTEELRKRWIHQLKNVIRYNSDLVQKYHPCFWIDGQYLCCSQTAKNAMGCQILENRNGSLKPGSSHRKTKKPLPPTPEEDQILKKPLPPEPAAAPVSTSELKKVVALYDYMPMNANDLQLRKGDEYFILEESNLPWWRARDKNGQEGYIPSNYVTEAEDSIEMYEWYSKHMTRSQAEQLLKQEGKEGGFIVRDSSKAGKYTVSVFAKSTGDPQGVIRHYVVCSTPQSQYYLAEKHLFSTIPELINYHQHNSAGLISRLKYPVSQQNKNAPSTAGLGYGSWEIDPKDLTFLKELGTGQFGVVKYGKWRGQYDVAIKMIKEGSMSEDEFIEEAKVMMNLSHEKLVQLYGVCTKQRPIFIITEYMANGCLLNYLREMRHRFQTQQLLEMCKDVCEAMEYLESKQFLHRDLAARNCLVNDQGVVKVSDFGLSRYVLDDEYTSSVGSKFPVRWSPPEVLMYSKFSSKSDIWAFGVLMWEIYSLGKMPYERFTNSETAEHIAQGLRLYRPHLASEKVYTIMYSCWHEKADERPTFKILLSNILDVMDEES
row,SMILES,DC50
1,COc1cc(CN2CCC(c3ccc(C4CCC(=O)NC4=O)cc3)CC2)ccc1OCCOc1cccc(-c2cc3c(-c4ccc(CNC(=O)c5noc(C(C)(C)C)n5)c(C)c4)ncnn3c2)c1 (stereo not drawn) [Example 204],100 to 500 nM
2,"Cc1cc(-c2ncnn3cc(-c4cnc(Oc5ccc(CN6CCC(c7ccc(C8CCC(=O)NC8=O)cc7)CC6)cc5)nc4)cc23)ccc1CNC(=O)c1noc(C(C)(C)C)n1 (stereo not drawn) [Example 206, 5-(tert-butyl)-N-(4-(6-(2-(4-((4-(4-(2,6-dioxopiperidin-3-yl)phenyl)piperidin-1-yl)methyl)phenoxy)pyrimidin-5-yl)pyrrolo[2,1-f][1,2,4]triazin-4-yl)-2-methylbenzyl)-1,2,4-oxadiazole-3-carboxamide]",< 100 nM
3,"Cc1cc(-c2ncnn3cc(-c4cccc(C(C)CN5CCC(c6ccc(C7CCC(=O)NC7=O)cc6)CC5)c4)cc23)ccc1CNC(=O)c1noc(C(C)(C)C)n1 (stereo not drawn) [Example 207, 5-(tert-butyl)-N-(4-(6-(3-(1-(4-(4-(2,6-dioxopiperidin-3-yl)phenyl)piperidin-1-yl)propan-2-yl)phenyl)pyrrolo[2,1-f][1,2,4]triazin-4-yl)-2-methylbenzyl)-1,2,4-oxadiazole-3-carboxamide]",< 100 nM
4,"Cc1cc(-c2ncnn3cc(-c4csc(CN5CCC(c6ccc(C7CCC(=O)NC7=O)cc6)CC5)n4)cc23)ccc1CNC(=O)c1noc(C(C)(C)C)n1 (stereo not drawn) [Example 208, 5-(tert-butyl)-N-(4-(6-(2-((4-(4-(2,6-dioxopiperidin-3-yl)phenyl)piperidin-1-yl)methyl)thiazol-4-4-yl)pyrrolo[2,1-f][1,2,4]triazin-4-yl)-2-methylbenzyl)-1,2,4-oxadiazole-3-carboxamide]",< 100 nM
5,"Cc1cc(-c2ncnn3cc(-c4cn(C)c(CN5CCC(c6ccc(C7CCC(=O)NC7=O)cc6)CC5)n4)cc23)ccc1CNC(=O)c1noc(C(C)(C)C)n1 (stereo not drawn) [Example 209, 5-(tert-butyl)-N-(4-(6-(2-((4-(4-(2,6-dioxopiperidin-3-yl)phenyl)piperidin-1-yl)methyl)-1-methyl-1H-imidazol-4-yl)pyrrolo[2,1-f][1,2,4]triazin-4-yl)-2-methylbenzyl)-1,2,4-oxadiazole-3-carboxamide]",< 100 nM
6,"Cc1cc(-c2ncnn3cc(-c4cccc5c(CN6CCC(c7ccc(C8CCC(=O)NC8=O)cc7)CC6)n(C)nc45)cc23)ccc1CNC(=O)c1noc(C(C)(C)C)n1 (stereo not drawn) [Example 212, 5-(tert-butyl)-N-(4-(6-(3-((4-(4-(2,6-dioxopiperidin-3-yl)phenyl)piperidin-1-yl)methyl)-2-methyl-2H-indazol-7-yl)pyrrolo[2,1-f][1,2,4]triazin-4-yl)-2-methylbenzyl)-1,2,4-oxadiazole-3-carboxamide]",100 to 500 nM
7,"Cc1cc(-c2ncnn3cc(-c4cccc(CN5CCC(c6ccc(C7CCC(=O)NC7=O)cc6)CC5)n4)cc23)ccc1CNC(=O)c1noc(C(C)(C)C)n1 (stereo not drawn) [Example 214, 5-(tert-butyl)-N-(4-(6-(6-((4-(4-(2,6-dioxopiperidin-3-yl)phenyl)piperidin-1-yl)methyl)pyridin-2-yl)pyrrolo [2,1-f][1,2,4]triazin-4-yl)-2-methylbenzyl)-1,2,4-oxadiazole-3-carboxamide]",< 100 nM
8,"Cc1cc(-c2ncnn3cc(-c4nccc(CN5CCC(c6ccc(C7CCC(=O)NC7=O)cc6)CC5)n4)cc23)ccc1CNC(=O)c1noc(C(C)(C)C)n1 (stereo not drawn) [Example 215, 5-(tert-butyl)-N-(4-(6-(4-((4-(4-(2,6-dioxopiperidin-3-yl)phenyl)piperidin-1-yl)methyl)pyrimidin-2-yl)pyrrolo [2,1-f][1,2,4]triazin-4-yl)-2-methylbenzyl)-1,2,4-oxadiazole-3-carboxamide]",< 100 nM

# Second part, the compound after the results:
row,DC50,SMILES
1,< 100 nM,"Cc1cc(-c2ncnn3cc(-c4ccc(CNC5CCc6cc(NC7CCC(=O)NC7=O)ccc6C5)cc4)cc23)ccc1CNC(=O)c1noc(C(C)(C)C)n1 (stereo not drawn) [Example 202, 5-(tert-butyl)-N-(4-(6-(4-(((6-((2,6-dioxopiperidin-3-yl)amino)-1,2,3,4-tetrahydronaphthalen-2-yl)amino)methyl)phenyl)pyrrolo[2,1-f][1,2,4]triazin-4-yl)-2-methylbenzyl)-1,2,4-oxadiazole-3-carboxamide]"
2,< 100 nM,"Cc1cc(-c2ncnn3cc(-c4ccc(CN5CCOCC(n6cc(NC7CCC(=O)NC7=O)cn6)C5)cc4)cc23)ccc1CNC(=O)c1noc(C(C)(C)C)n1 (stereo not drawn) [Example 203, 5-(tert-butyl)-N-(4-(6-(4-((6-(4-((2,6-dioxopiperidin-3-yl)amino)-1H-pyrazol-1-yl)-1,4-oxazepan-4-yl)methyl)phenyl)pyrrolo[2,1-f][1,2,4]triazin-4-yl)-2-methylbenzyl)-1,2,4-oxadiazole-3-carboxamide]"
3,< 100 nM,"Cc1cc(-c2ncnn3cc(-c4cccc(-n5cc(CN6CCC(c7ccc(C8CCC(=O)NC8=O)cc7)CC6)c(C)n5)c4)cc23)ccc1CNC(=O)c1noc(C(C)(C)C)n1 (stereo not drawn) [Example 205, 5-(tert-butyl)-N-(4-(6-(3-(4-((4-(4-(2,6-dioxopiperidin-3-yl)phenyl)piperidin-1-yl)methyl)-3-methyl-1H-pyrazol-1-yl)phenyl)pyrrolo[2,1-f][1,2,4]triazin-4-yl)-2-methylbenzyl)-1,2,4-oxadiazole-3-carboxamide]"
4,100 to 500 nM,"Cc1cc(-c2ncnn3cc(-c4cn5c(CN6CCC(c7ccc(C8CCC(=O)NC8=O)cc7)CC6)cnc5s4)cc23)ccc1CNC(=O)c1noc(C(C)(C)C)n1 (stereo not drawn) [Example 210, 5-(tert-butyl)-N-(4-(6-(5-((4-(4-(2,6-dioxopiperidin-3-yl)phenyl)piperidin-1-yl)methyl)imidazo[2,1-b]thiazol-2-yl)pyrrolo[2,1-f][1,2,4]triazin-4-yl)-2-methylbenzyl)-1,2,4-oxadiazole-3-carboxamide]"
5,< 100 nM,"Cc1cc(-c2ncnn3cc(-c4ccn5cc(CN6CCC(c7ccc(C8CCC(=O)NC8=O)cc7)CC6)nc5c4)cc23)ccc1CNC(=O)c1noc(C(C)(C)C)n1 (stereo not drawn) [Example 211, 5-(tert-butyl)-N-(4-(6-(2-((4-(4-(2,6-dioxopiperidin-3-yl)phenyl)piperidin-1-yl)methyl)imidazo[1,2-a]pyridin-7-yl)pyrrolo[2,1-f][1,2,4]triazin-4-yl)-2-methylbenzyl)-1,2,4-oxadiazole-3-carboxamide]"
6,< 100 nM,"Cc1cc(-c2ncnn3cc(-c4ncc(CN5CCC(c6ccc(C7CCC(=O)NC7=O)cc6)CC5)cc4C)cc23)ccc1CNC(=O)c1noc(C(C)(C)C)n1 (stereo not drawn) [Example 213, 5-(tert-butyl)-N-(4-(6-(5-((4-(4-(2,6-dioxopiperidin-3-yl)phenyl)piperidin-1-yl)methyl)-3-methylpyridin-2-yl)pyrrolo[2,1-f][1,2,4]triazin-4-yl)-2-methylbenzyl)-1,2,4-oxadiazole-3-carboxamide]"
7,< 100 nM,"Cc1cc(-c2ncnn3cc(-c4cc(CN5CCC(c6ccc(C7CCC(=O)NC7=O)cc6)CC5)ccn4)cc23)ccc1CNC(=O)c1noc(C(C)(C)C)n1 (stereo not drawn) [Example 216, 5-(tert-butyl)-N-(4-(6-(4-((4-(4-(2,6-dioxopiperidin-3-yl)phenyl)piperidin-1-yl)methyl)pyridin-2-yl)pyrrolo[2,1-f][1,2,4]triazin-4-yl)-2-methylbenzyl)-1,2,4-oxadiazole-3-carboxamide]"
